Assay results reported in patent publication US20180009764A1, “METHOD FOR TREATING MACROPHAGE MIGRATION INHIBITORY FACTOR (MIF)-IMPLICATED DISEASES AND CONDITIONS WITH IODO PYRIMIDINE DERIVATIVES” (UNIVERSITY OF LOUISVILLE RESEARCH FOUNDATION, INC., priority 2009, published 2018).
Values after ≈ are worked out from the molar mass of the structure shown.

What was measured:
[1] = Solubility in varying solvents; format: physicochemical; conditions: 21 °C, 20-22° C.
[2] = system: p53; assay: p53 up regulation, p53 luciferase assay; format: cell-based; conditions: 10 μM; FIG. 5
Description: The up regulation of p53 was determined using a commercially available p53 luciferase assay kit. 1×10^5 cells/ml were plated in a 24 well plate and allowed to adhere overnight. MIF antagonists were added to the cells at the indicated concentrations for 16 hours and transiently co-transfected with 0.125 μg/well of p53-responsive luciferase promoter plasmid (Promega, Madison, Wis.) together with 0.0125 μg/well Renilla pRL-null plasmid (Promega) using Lipofectamine (Invitrogen) transfection reagent. After 24 hrs, Firefly and Renilla luciferase activities were measured by the Dual Luciferase Reporter Assay System (Promega, Madison, Wis.) on a TD-20/20 luminometer (Turner Designs).

[3] = system: DU145 human prostate xenografts; assay: Microvessel density in xenograft tumors (immunohistochemistry); format: in vivo, athymic nude mice; conditions: end of the DU145 xenograft experiment; FIG. 9
Description: At the end of the experiment described in EXAMPLE 69 above, tumors in each group were removed and sliced. Blood vessel density of the tumor tissues was measured by immunohistochemistry. […] These in vivo results confirmed that the compounds described in this application inhibit angiogenesis.

[4] = system: primary human T lymphocytes; assay: Anti-CD3 induced T lymphocyte activation/proliferation (flow cytometry); format: cell-based; conditions: 25 μM
Description: In order to assess the ability of MIF antagonists to disrupt autoimmune-associated T cell activation, primary human T lymphocytes were prepared using standard Ficoll-gradient preparations. 1×10^6 lymphocytes/ml were resuspended in RPMI/10% FCS and plated onto anti-CD3 antibodies previously immobilized onto tissue culture plates. Control, vehicle control (0.1% DMSO), 25 μM 4-IPP or 25 μM ACT-003 were added to cells and allowed to incubate for 48 hours. Cells were lifted, washed and stained with anti-CD4 or anti-CD8 antibodies and then analyzed by flow cytometry.
To validate the effects of MIF antagonists on T lymphocyte activation, experiments were set up exactly as described above and, 48 hours later, treated and untreated lymphocytes were stained with an anti-CD25 antibody. CD25 is also known as the high affinity IL-2 receptor—a very well characterized and frequently marker of T lymphocyte activation.
In order to investigate the relative kinetics of when 4-IPP and ACT-003 are acting in blocking T lymphocyte activation, we repeated the experiment described above but harvested lymphocytes only 16 hours after anti-CD3 plating. At this early time point during T lymphocyte activation, CD69 is found to be expressed and is usually considered to be an “early marker” of lymphocyte activation.
Finally, to confirm that proliferation of CD4+ and CD8+ T lymphocytes is blocked by 4-IPP-based MIF antagonists, we repeated the experiment as described above, added labeled-BrdU to cells, stained with either labeled anti-CD4 or anti-CD8 antibodies and then assessed relative CD4/CD8 and BrdU labeling in each treatment group.

[5] = Caco-2 cell permeability and transport; format: in vitro ADME; conditions: human, Caco-2, pH 7.4
Summary of the method: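 Caco-2 and MDR1-MDCK monolayers were run in triplicate, apical-to-basolateral and basolateral-to-apical, in modified Hanks buffer pH 7.4 with 1% BSA on the receiver side. Monolayer integrity was checked with atenolol and propranolol. Both sides were sampled at 2 h and quantified by LC/MS-MS.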

[6] = molecular target: T1, MIF (Mus musculus, UniProt P34884); assay: MIF liver lysates enzymatic activity ex vivo (L-dopachrome tautomerase); conditions: mice; IP 1 mg in corn oil every day for 3 days; livers 6 hours after last injection; FIG. 1
T1 construct: from tissue; host or cells: mouse liver (A7); liver, lung and brain of C57BL6 mice (A20)
Description: This experiment, using an ex-vivo approach and the tautomeric reaction of L-dopachrom, was designed to ascertain the level of inhibition of MIF following administration of the compounds of this invention via oral, IV, IP or any other route of administration. Mice were used in the example illustrated below, but other animals could be used as well. Groups of 3 mice were administered IP 1 mg of 4-IPP and ACT-002 resuspended in 100 μl of corn oil every day for 3 days. Mice were sacrificed 6 hours after the last injection and livers were harvested. ˜1 gram pieces of liver were lysed in PBS containing 1 mM NaVO4, 2 mM NaF and a protease inhibitor cocktail (Roche Biochemical, Indianapolis, Ind.) using dounce-homogenization on ice. 500 μg of liver lysates were added to a final volume of 700 μl PBS in plastic cuvettes. 4 mM L-3, 4-dihydroxyphenylalanine methyl ester and 8 mM sodium periodate (Sigma-Aldrich) were combined in a 3:2 ratio to form L-dopachrome methyl ester. 300 μL of L-dopachrome methyl ester was then immediately added to the cuvettes; the OD475 nm was measured 2 min and 4 min after addition of the L-dopachrome.

[7] = molecular target: T1, MIF; assay: Oral bioavailability: ex vivo MIF enzymatic activity in liver, brain and lung after IP and PO dosing; set-up: species or system C57BL6 mice
Description: The compounds were administered orally (PO) and intraperitoneally (IP) to healthy animals. The inhibition of the MIF liver enzymatic activity determined ex vivo following IP and PO dosing is similar, indicating high oral bioavailability. Furthermore, brain and lung tissues were collected and processed to determine MIF enzymatic activity in these organs. […] Inhibition of MIF enzyme was determined […] following dosing of MIF-002 at 40 mg/kg once a day for three days, both IP and PO (normal C57BL6 mice, n=3). Tissues were collected at sacrifice and processed. Liver, lung, and brain tissues were collected, processed, and used for the determination of MIF enzyme activity. Values are expressed as a percentage calculated using DMSO as control (no inhibition).
Two additional compounds were tested, MIF-035 and MIF-041.

Which results are given for `Fc1ccccc1-c1cc(I)ncn1` [ACT-MIF-003, 4-Iodo-6-(2-fluorophenyl)pyrimidine]?
solubility ([1]; aqueous with cosolvent or surfactant or cyclodextrin, Cremophor): 15 mg/mL (≈ 50 mM); solubility ([1]; aqueous with cosolvent or surfactant or cyclodextrin, Ethanol/Tween 80): 20 mg/mL (≈ 66.7 mM); solubility ([1]; oil or lipid, Corn oil): 15 mg/mL (≈ 50 mM); solubility ([1]; organic solvent or mixture, DMSO): 216 mg/mL (≈ 720 mM); solubility ([1]; organic solvent or mixture, Ethanol): 85 mg/mL (≈ 283 mM); solubility ([1]; organic solvent or mixture, PEG-300): 66 mg/mL (≈ 220 mM); solubility ([1]; organic solvent or mixture, Propane-diol): 25 mg/mL (≈ 83.3 mM); p53 regulation [2]: implicated in p53 regulation; Microvessel density of tumor tissues [3]: decrease in microvessel density with respect to the tumors of the control group with a statistically meaningful difference; CD69 expression ([4]; 16 hours, FIGS. 17 and 18): only a marginal effect on CD69 expression; CD4 and CD8 T lymphocytes after anti-CD3 activation ([4]; 48 hours, FIGS. 13 and 14): significantly fewer CD4 and CD8 T lymphocytes; Anti-CD3-induced CD25 expression ([4]; 48 hours, FIGS. 15 and 16): almost completely blocked the anti-CD3-induced CD25 expression; BrdU labeling of CD8+ and CD4+ T lymphocytes (proliferation) ([4]; 48 hours, FIGS. 19 and 20): almost completely blocked BrdU labeling in both CD8+ and CD4+ T lymphocytes; efflux ratio at 2 h [5]: 1.2

Which “MIF liver enzyme inhibition” value [6] does the source give for `COc1ccc(-c2cc(I)ncn2)c(F)c1` [ACT-MIF-002, 4-Iodo-6-(2-fluoro-4-methoxyphenyl)pyrimidine] here?
Its value is “significant in vivo inhibition of MIF”.

What about the “Inhibition of MIF enzymatic activity in brain and lungs” value ([7]; 40 mg/kg once a day for three days, IP and PO, FIG. 12) of the same molecule?
Its value is “inhibits MIF enzymatic activity in both the brain and the lungs”.

What about the Oral bioavailability ([7]; judged from ex vivo MIF inhibition after IP and PO dosing) of the same molecule?
Its Oral bioavailability is “orally bioavailable”.

And the “Crossing of the blood brain barrier” value ([7]; judged from ex vivo MIF inhibition in brain)?
Its value is “crosses the brain blood barrier”.
